Our source for the fraction unbound and Fu values is ChEMBL document CHEMBL3588839, “Species differences in drug plasma protein binding” (Medchemcomm, 2014).

Structures are written as SMILES.

The nature of data set [1]: in vitro. To be noted: dog, plasma, pH 7.4.
Description: Fraction unbound (%) in dog plasma at pH 7.4 after 18 hrs by equilibrium dialysis
Data set [2] is described as follows: in vitro. The note with it: human, plasma, pH 7.4.
Description: Fraction unbound (%) in human plasma at pH 7.4 after 18 hrs by equilibrium dialysis
Data set [3] is described as follows: Fraction unbound (%) in mouse plasma at pH 7.4 after 18 hrs by equilibrium dialysis. It is filed as ADME, cell-free.
Data set [4] in a line: in vitro. The note with it: rat, plasma, pH 7.4.
Description: Fraction unbound (%) in rat plasma at pH 7.4 after 18 hrs by equilibrium dialysis
Data set [5] has as its system Plasma. Description: Fraction unbound (%) in human plasma in phosphate buffer after 30 mins by liquid scintillation counting. It is filed as ADME, cell-free. To be noted: 0.5 h.
In data set [6] the test system is Plasma. Description: Fraction unbound (%) in rat plasma in phosphate buffer after 30 mins by liquid scintillation counting. Format: ADME, cell-free. The note with it: 0.5 h.

As for `CCCc1nn(C)c2c(=O)[nH]c(-c3cc(S(=O)(=O)N4CCN(C)CC4)ccc3OCC)nc12`, the fraction unbound at 18 h was 0.26 in the data set “in vitro [1]” and 0.064 in the data set “in vitro [2]”.

As to `CC[C@@H](c1ccccc1)c1c(O)c2ccccc2oc1=O`, the fraction unbound at 18 h in data set [3] came to 0.11; in the data set “in vitro [2]”, 0.007.

Turning to `CO[C@@]1(NC(=O)C2SC(=C(C(N)=O)C(=O)O)S2)C(=O)N2C(C(=O)O)=C(CSc3nnnn3C)CS[C@@H]21` (stereo partly specified) [CEFOTETAN], the fraction unbound at 18 h in the data set “in vitro [1]” was 0.61; in “in vitro [4]” it was 0.7; in the data set “in vitro [2]” it was 0.09.

`Cc1cc(O)c(C(=O)N[C@@H](C(=O)N[C@@H]2C(=O)N3C(C(=O)O)=C(CSc4nnnn4C)CS[C@H]23)c2ccc(O)cc2)cn1` [CEFPIRAMIDE]: the values for the fraction unbound at 18 h in the data set “in vitro [1]” and in the data set “in vitro [2]” were 0.6 and 0.09, respectively.

As for `COc1cc([C@@H]2c3cc4c(cc3[C@@H](O[C@@H]3O[C@@H]5CO[C@@H](C)O[C@H]5[C@H](O)[C@H]3O)[C@H]3COC(=O)[C@H]23)OCO4)cc(OC)c1O` [ETOPOSIDE], the results for the fraction unbound at 18 h in the data set “in vitro [1]”, in the data set “in vitro [4]” and in the data set “in vitro [2]” were 0.63, 0.52 and 0.049, respectively.

Regarding `O=c1[nH]c2ccccc2n1C1CCN(CCCC(c2ccc(F)cc2)c2ccc(F)cc2)CC1` [PIMOZIDE], the fraction unbound at 18 h was 0.0004 in the data set “in vitro [1]” and 0.0016 in “in vitro [2]”.

For the compound `CCOc1ccccc1OCCN[C@H](C)Cc1ccc(OC)c(S(N)(=O)=O)c1` [TAMSULOSIN], the Fu in the data set on Plasma [5] was found to be 1%; with Plasma [6], 20%. Besides, the unbound share (fraction unbound) at 18 h in “in vitro [4]” worked out at 0.2.

On to `CCCC(CCC)C(=O)O` [VALPROIC ACID], for which the fraction unbound at 18 h in the data set “in vitro [4]” worked out at 0.88; in the data set “in vitro [2]”, 0.052.

Take `c1ccc(C(O[C@@H]2CCCN(CCc3ccc4c(c3)OCO4)C2)c2ccccc2)cc1` [ZAMIFENACIN]: the fraction unbound at 18 h in “in vitro [4]” amounted to 0.002; in the data set “in vitro [2]”, 0.0001.
